Data as given in patent publication US5693628A, “11-benzaldoxime-estra-diene derivatives, methods for their production and pharmaceuticals containing these compounds” (priority 1994, dated 1997).

How the values were obtained:
glucocorticoid receptor = biological target: T1, glucocorticoid receptor (Rattus norvegicus, UniProt P06536); test: relative molar bonding affinity to glucocorticoid receptor (competitive bonding); format: binding; conditions: dexamethasone = 100%; thymus cytosol of adrenalectomized rat; 3H-dexamethasone, 20 nM; 18 h, 0-4° C.
T1 construct: thymus cytosol of the adrenalectomized rat; from tissue; host or cells: thymus (cytosol) of adrenalectomized rat
T1 sequence (P06536 1-795): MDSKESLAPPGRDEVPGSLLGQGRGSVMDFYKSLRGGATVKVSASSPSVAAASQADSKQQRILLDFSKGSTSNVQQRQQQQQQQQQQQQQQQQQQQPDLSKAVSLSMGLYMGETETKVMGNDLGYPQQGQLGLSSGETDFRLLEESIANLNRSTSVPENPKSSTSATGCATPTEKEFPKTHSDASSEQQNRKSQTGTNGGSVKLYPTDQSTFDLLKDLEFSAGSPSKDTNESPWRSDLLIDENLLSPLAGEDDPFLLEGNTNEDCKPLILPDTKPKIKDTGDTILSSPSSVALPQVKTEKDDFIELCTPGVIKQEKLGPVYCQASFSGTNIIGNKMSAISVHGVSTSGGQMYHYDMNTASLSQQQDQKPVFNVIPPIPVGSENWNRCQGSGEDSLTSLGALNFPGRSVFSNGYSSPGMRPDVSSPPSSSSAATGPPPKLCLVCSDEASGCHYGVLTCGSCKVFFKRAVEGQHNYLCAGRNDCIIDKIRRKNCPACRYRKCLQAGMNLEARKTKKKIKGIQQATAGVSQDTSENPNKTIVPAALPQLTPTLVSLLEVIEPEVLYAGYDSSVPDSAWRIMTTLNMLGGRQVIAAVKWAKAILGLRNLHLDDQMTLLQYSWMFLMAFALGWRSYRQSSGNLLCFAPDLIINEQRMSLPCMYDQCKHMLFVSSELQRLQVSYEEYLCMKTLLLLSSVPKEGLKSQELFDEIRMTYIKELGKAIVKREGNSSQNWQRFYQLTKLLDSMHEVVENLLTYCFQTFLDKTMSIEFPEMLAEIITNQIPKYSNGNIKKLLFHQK
Procedure: (§1) Measurement of bonding affinity for receptors
(§2) Receptor bonding affinity was determined by competitive bonding of a specifically binding ^3 H labelled hormone (tracer) and the compound to be tested to receptors in the cytosol from animal target organs. It was tried to obtain receptor saturation and a balanced reaction. The following incubation conditions were selected:
Glucocorticoid receptor: thymus cytosol of the adrenalectomized rat, thymi kept at -30° C., buffer: TED. Tracer: ^3 H-dexamethasone, 20 nM; reference substance: dexamethasone.
(§3) After an incubation period of 18 hours at 0°-4° C., bonded and free steroid was separated by mixing in active carbon/dextrane (1%/0.1%), centrifuging off and measuring the bonded ^3 H activity in the supernatant.
(§4) The IC50 for the compound to be tested and for the reference substance were determined from measurements in series of concentrations.

oestrogen receptor = biological target: T2, oestrogen receptor (Oryctolagus cuniculus, UniProt G1SML6); test: relative molar bonding affinity to oestrogen receptor (competitive bonding); format: binding; conditions: estradiol = 100%; uterine cytosol of immature rabbit; 3H-ethinyl estradiol, 3 nM; 18 h, 0-4° C.
T2 construct: uterine cytosol of the immature rabbit; from tissue; host or cells: uterus (cytosol) of immature rabbit
T2 sequence (G1SML6 1-598): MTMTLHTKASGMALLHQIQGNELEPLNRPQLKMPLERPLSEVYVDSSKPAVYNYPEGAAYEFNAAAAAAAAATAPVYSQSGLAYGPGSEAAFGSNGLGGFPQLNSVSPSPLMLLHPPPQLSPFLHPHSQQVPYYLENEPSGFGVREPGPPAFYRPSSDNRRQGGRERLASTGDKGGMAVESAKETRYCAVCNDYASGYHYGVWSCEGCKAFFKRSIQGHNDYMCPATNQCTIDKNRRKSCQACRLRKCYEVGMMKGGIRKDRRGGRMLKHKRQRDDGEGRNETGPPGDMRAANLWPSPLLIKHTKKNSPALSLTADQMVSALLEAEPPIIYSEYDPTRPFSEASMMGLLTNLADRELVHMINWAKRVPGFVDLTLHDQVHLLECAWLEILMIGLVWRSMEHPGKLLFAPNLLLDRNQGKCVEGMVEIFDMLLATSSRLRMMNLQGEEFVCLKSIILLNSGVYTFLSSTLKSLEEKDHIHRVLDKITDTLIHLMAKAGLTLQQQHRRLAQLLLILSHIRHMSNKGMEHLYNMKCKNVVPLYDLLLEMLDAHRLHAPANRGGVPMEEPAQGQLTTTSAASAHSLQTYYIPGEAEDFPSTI
Procedure: as §1, §2
Oestrogen receptor: uterine cytosol of the immature rabbit, kept at -30° C. in TED buffer with 250 mM of saccharose. Tracer: ^3 H-ethinyl estradiol, 3 nM; reference substance: 17β-estradiol.
as §3
The IC50 for the compound to be tested and for the reference substance were determined from measurements in series of concentrations. The quotient of both values (×100%) is the relative molar bonding affinity.

progesterone receptor = biological target: T3, progesterone receptor (Oryctolagus cuniculus, UniProt P06186); test: relative molar bonding affinity to progesterone receptor (competitive bonding); format: binding; conditions: progesterone = 100%; uterine cytosol of estradiol-primed rabbit; 3H-ORG 2058, 5 nM; 18 h, 0-4° C.
T3 construct: uterine cytosol of the estradiol-primed rabbit; from tissue; host or cells: uterus (cytosol) of estradiol-primed rabbit
T3 sequence (P06186 1-930): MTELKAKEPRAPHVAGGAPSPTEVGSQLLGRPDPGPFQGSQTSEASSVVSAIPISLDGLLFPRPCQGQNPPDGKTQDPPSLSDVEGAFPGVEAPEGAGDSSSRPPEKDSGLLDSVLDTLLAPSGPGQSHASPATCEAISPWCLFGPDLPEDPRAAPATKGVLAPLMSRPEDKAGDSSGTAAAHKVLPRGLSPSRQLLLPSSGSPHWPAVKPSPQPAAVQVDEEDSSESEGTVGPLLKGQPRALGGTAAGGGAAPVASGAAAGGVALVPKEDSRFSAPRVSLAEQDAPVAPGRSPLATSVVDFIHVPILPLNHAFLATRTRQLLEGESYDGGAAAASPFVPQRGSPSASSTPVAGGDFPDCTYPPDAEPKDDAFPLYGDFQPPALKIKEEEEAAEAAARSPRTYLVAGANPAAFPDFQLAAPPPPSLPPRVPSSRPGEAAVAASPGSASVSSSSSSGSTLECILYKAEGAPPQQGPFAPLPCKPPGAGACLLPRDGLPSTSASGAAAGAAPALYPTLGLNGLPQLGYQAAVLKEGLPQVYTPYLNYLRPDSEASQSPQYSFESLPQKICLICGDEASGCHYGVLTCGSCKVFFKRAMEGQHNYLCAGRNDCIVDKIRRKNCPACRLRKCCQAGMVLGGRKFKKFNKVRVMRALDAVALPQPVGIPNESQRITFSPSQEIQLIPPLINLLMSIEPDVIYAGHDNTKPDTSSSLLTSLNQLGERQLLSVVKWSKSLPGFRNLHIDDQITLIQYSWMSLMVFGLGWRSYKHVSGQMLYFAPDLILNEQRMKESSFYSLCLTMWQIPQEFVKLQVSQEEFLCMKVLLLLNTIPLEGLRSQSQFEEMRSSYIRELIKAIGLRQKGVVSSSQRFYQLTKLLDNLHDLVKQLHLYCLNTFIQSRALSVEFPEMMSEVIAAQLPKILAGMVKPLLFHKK
Procedure: as §1, §2
Progesterone receptor: uterine cytosol of the estradiol-primed rabbit, kept at -30° C. in TED buffer (20 mM Tris/HCl, pH 7.4; 1 mM ethylene diamine tetraacetate, 2 mM dithio threitol) with 250 mM of saccharose.
as §3, §4

[1] = tested on: uterine weight in cyclic guinea pigs; test: Influence on uterine weight in cyclic guinea pigs; format: in vivo, guinea pig
From the text: FIG. 1. is a chart showing a comparison of the influence on uterine weight in cyclic guineau pigs when treated with the antigestagen agents RU 486, a control (the vehicle), and a compound of the present invention, J 867 (as prepared in accordance with Example 1).
FIG. 1 compares the influence of antigestagen treatment of cyclic guinea pigs on uterine weights for J 867 and RU 486.
Treatment of female guinea pigs with antigestagen
Treatment of adult female guinea pigs from day 10 to day 18 of the cycle (autopsy). Administration of the specified doses using subcutaneous osmotic pumps (Type 2 ML1 ALZET). Vehicle: […] propylene glycol/24 hrs.

[2] = tested on: early gravidity in the rat; test: Early abortive effect / inhibition of early gravidity in the rat; format: in vivo; conditions: 5th to 7th day of pregnancy; for complete gravidity inhibition % / complete gravidity inhibition N*/N (females not pregnant/inseminated females): empty uteri
Procedure: Inhibition of early gravidity in the rat
Female rats are mated in the pro-oestrus. If semen is found in the vaginal smear on the next day, this day is counted as day 1 (=d1) of the gravidity. Treatment with the test substance or vehicle is applied on d5-d7, autopsy is carried out on d9. The substances are injected subcutaneously in 0.2 ml of vehicle (benzyl benzoate/castor oil 1+4).

Row | relative molar bonding affinity (RBA) to glucocorticoid receptor (glucocorticoid receptor) [%] | relative molar bonding affinity (RBA) to oestrogen rec. (oestrogen receptor) [%] | relative molar bonding affinity (RBA) to progesterone receptor (progesterone receptor) [%] | SMILES | also measured
1 | 66 | < 0.1 | 294 | CCOC(=O)ON=Cc1ccc([C@H]2C[C@@]3(C)[C@@H](CC[C@]3(COC)OC)[C@@H]3CCC4=CC(=O)CCC4=C32)cc1 [Example 4] | 
2 | 39 |  | 22 | CN(C)c1ccc([C@H]2C[C@]3(C)[C@@H](CC[C@]3(O)CCCO)[C@@H]3CCC4=CC(=O)CCC4=C32)cc1 [ZK 98299, Onapristone, reference compound] | 
3 | 32 | < 0.1 | 90 | C[C@]12C[C@H](c3ccc(C=NO)cc3)C3=C4CCC(=O)C=C4CC[C@H]3[C@@H]1CC[C@@]2(O)CCl [Example 5, 17α-chloromethyl-11β-[4-(hydroximinomethyl)phenyl]-17β-hydroxy-estra-4,9-diene-3-on] | 
4 | 73 | < 0.1 | 236 | COC[C@]1(OC)CC[C@H]2[C@@H]3CCC4=CC(=O)CCC4=C3[C@@H](c3ccc(C=NOC(C)=O)cc3)C[C@@]21C [Example 3, 11β-[4-(acetyloximinomethyl)phenyl]-17β-methoxy-17α-methoxymethyl-estra-4,9-diene-3-on] | 
5 | 82 | < 0.1 | 136 | COC[C@]1(OC)CC[C@H]2[C@@H]3CCC4=CC(=O)CCC4=C3[C@@H](c3ccc(C=NOC)cc3)C[C@@]21C [Example 2, 11β-[4-(methoximinomethyl)phenyl]-17β-methoxy-17α-methoxymethyl-estra-4,9-diene-3-on] | 

Row | SMILES | relative molar bonding affinity (RBA) to glucocorticoid receptor (glucocorticoid receptor) [%] | relative molar bonding affinity (RBA) to oestrogen rec. (oestrogen receptor) [%] | relative molar bonding affinity (RBA) to progesterone receptor (progesterone receptor) [%] | also measured
6 | CC#C[C@]1(O)CC[C@H]2[C@@H]3CCC4=CC(=O)CCC4=C3[C@@H](c3ccc(N(C)C)cc3)C[C@@]21C [RU 486, Mifepristone, reference compound] | 685 |  |  | uterine weights of cyclic guinea pigs, high dose ([1]; 6 mg/24 hrs, s.c. osmotic pump, day 10 to 18 of cycle): reduce the uterine weights of the treated animals; uterine weights in the anovulatorial cycle in guinea pigs ([1]; doses at which RU 486 increases uterine weights, compared with control animals): increases uterine weights; uterine weights of cyclic guinea pigs, low dose ([1]; low dosis, s.c. osmotic pump, day 10 to 18 of cycle): slight gain in uterine weights; complete gravidity inhibition % ([2]; 0.3 mg/animal/day s.c.): 0%; complete gravidity inhibition N*/N (females not pregnant/inseminated females) ([2]; 0.3 mg/animal/day s.c.): 0/5; complete gravidity inhibition % ([2]; 1.0 mg/animal/day s.c.): 40%; complete gravidity inhibition N*/N (females not pregnant/inseminated females) ([2]; 1.0 mg/animal/day s.c.): 2/5; complete gravidity inhibition % ([2]; 3.0 mg/animal/day s.c.): 100%; complete gravidity inhibition N*/N (females not pregnant/inseminated females) ([2]; 3.0 mg/animal/day s.c.): 5/5; ED 50 ([2]; s.c., graphic determination): 1.3 mg/animal/day
